In the NIST ThermoML archive (doi:10.1021/je900468u):

What was measured:
[1] = xn = mol fraction of the nth substance listed; conditions: 101 kPa, Liquid; for speed of sound: Pulse-echo method
[2] = refractive index (Na D-line) (dimensionless); xn = mol fraction of the nth substance listed; conditions: 101 kPa, Liquid, Standard Abbe refractometry
[3] = 101 kPa, Liquid; for speed of sound: Pulse-echo method
[4] = refractive index (Na D-line) (dimensionless); conditions: 101.33 kPa, Liquid, Standard Abbe refractometry

C1CCCCC1 [cyclohexane] + c1ccccc1
Conditions	mass density, [1] [kg/m3]	refractive index, [2]	speed of sound, [1] [m/s]
283.15 K, x1 = 0.047	882.7	1.50275	1364
283.15 K, x1 = 0.0984	875.6	1.49741	1358
283.15 K, x1 = 0.1978	862.4	1.48772	1346
283.15 K, x1 = 0.2968	850.4	1.47886	1338
283.15 K, x1 = 0.3929	839.4	1.47071	1331
283.15 K, x1 = 0.4996	828.3	1.46247	1326
283.15 K, x1 = 0.6003	818.8	1.45532	1323
283.15 K, x1 = 0.7022	809.9	1.44865	1322
283.15 K, x1 = 0.7963	802.3	1.44324	1322
283.15 K, x1 = 0.8954	794.9	1.43781	1325
283.15 K, x1 = 0.9501	791.2	1.43453	1327
283.15 K, x1 = 1	787.8	1.43193	1329
298.15 K, x1 = 0.047	867.1	1.49298	1293
298.15 K, x1 = 0.0984	859.9	1.48771	1286
298.15 K, x1 = 0.1978	847	1.47808	1275
298.15 K, x1 = 0.2968	835.2	1.46965	1266
298.15 K, x1 = 0.3929	824.5	1.46157	1259
298.15 K, x1 = 0.4996	813.6	1.45354	1254
298.15 K, x1 = 0.6003	804.2	1.44654	1251
298.15 K, x1 = 0.7022	795.5	1.44001	1249
298.15 K, x1 = 0.7963	788	1.43431	1249
298.15 K, x1 = 0.8954	780.8	1.42891	1250
298.15 K, x1 = 0.9501	777.2	1.42611	1252
298.15 K, x1 = 1	773.9	1.4236	1255

C1CCCCCCC1 [cyclooctane] + c1ccccc1
298.15 K
Conditions	mass density, [1] [kg/m3]	refractive index, [2]	speed of sound, [1] [m/s]
x1 = 0.0522	869.3	1.49384	1300
x1 = 0.102	865.4	1.49019	1301
x1 = 0.203	858.5	1.48375	1306
x1 = 0.3029	852.8	1.47827	1313
x1 = 0.4033	847.9	1.47346	1322
x1 = 0.5002	843.9	1.46955	1331
x1 = 0.5985	840.5	1.46607	1342
x1 = 0.7025	837.5	1.46284	1354
x1 = 0.7983	835.2	1.4603	1365
x1 = 0.8946	833.3	1.45808	1377
x1 = 0.9504	832.4	1.45694	1384
x1 = 1	831.5	1.45598	1391

CCc1ccccc1 [ethylbenzene]
Conditions	mass density, [3] [kg/m3]	refractive index, [4]	speed of sound, [3] [m/s]
283.15 K	875.7	1.50129	1382
298.15 K	862.5	1.49304	1319

C1CCCCC1 [cyclohexane]
Conditions	mass density, [3] [kg/m3]	refractive index, [4]	speed of sound, [3] [m/s]
283.15 K	787.8	1.43193	1329
298.15 K	773.9	1.4236	1255

C1CCCCC1 [cyclohexane] + Cc1ccccc1
Conditions	mass density, [1] [kg/m3]	refractive index, [2]	speed of sound, [1] [m/s]
283.15 K, x1 = 0.0484	871	1.4988	1365
283.15 K, x1 = 0.099	865.8	1.49476	1360
283.15 K, x1 = 0.1997	855.8	1.48684	1351
283.15 K, x1 = 0.2973	846.1	1.47919	1344
283.15 K, x1 = 0.3975	836.6	1.47167	1337
283.15 K, x1 = 0.4999	827.3	1.46416	1331
283.15 K, x1 = 0.5881	819.6	1.45803	1328
283.15 K, x1 = 0.699	810.3	1.45054	1325
283.15 K, x1 = 0.7985	802.4	1.44407	1324
283.15 K, x1 = 0.8961	795.1	1.43794	1325
283.15 K, x1 = 0.9497	791.3	1.43489	1327
283.15 K, x1 = 1	–	–	1329
298.15 K, x1 = 0.0484	857.2	1.49021	1300
298.15 K, x1 = 0.099	852	1.48614	1294
298.15 K, x1 = 0.1997	842	1.47829	1285
298.15 K, x1 = 0.2973	832.3	1.47073	1276
298.15 K, x1 = 0.3975	822.8	1.4632	1269
298.15 K, x1 = 0.4999	813.4	1.4558	1263
298.15 K, x1 = 0.5881	805.7	1.44964	1258
298.15 K, x1 = 0.699	796.4	1.44216	1254
298.15 K, x1 = 0.7985	788.4	1.4358	1252
298.15 K, x1 = 0.8961	781.1	1.42971	1252
298.15 K, x1 = 0.9497	777.4	1.42663	1253
298.15 K, x1 = 1	773.9	1.4236	1255
